From ChEMBL document CHEMBL4819067, “Discovery of novel pyrimidine molecules containing boronic acid as VCP/p97 Inhibitors” (Bioorg Med Chem, 2021) come the findings set out here.

SMILES strings stand for the structures.

One experiment relates to RPMI-8226. The experiment can be described thus: Cytotoxicity against human RPMI-8226 cells assessed as reduction in cell viability incubated for 72 hrs by CCK8 assay. It is filed as functional, cell-based. (Formazan colour is commonly taken as a measure of viable cells.)
In experiment [1] the target is Transitional endoplasmic reticulum ATPase (Homo sapiens, UniProt P55072). In words: Inhibition of p97 (unknown origin) incubated for 60 mins by ADP-Glo assay. In general terms: In ADP-Glo the light output rises with the ADP produced.
Sequence of Transitional endoplasmic reticulum ATPase (P55072 whole entry): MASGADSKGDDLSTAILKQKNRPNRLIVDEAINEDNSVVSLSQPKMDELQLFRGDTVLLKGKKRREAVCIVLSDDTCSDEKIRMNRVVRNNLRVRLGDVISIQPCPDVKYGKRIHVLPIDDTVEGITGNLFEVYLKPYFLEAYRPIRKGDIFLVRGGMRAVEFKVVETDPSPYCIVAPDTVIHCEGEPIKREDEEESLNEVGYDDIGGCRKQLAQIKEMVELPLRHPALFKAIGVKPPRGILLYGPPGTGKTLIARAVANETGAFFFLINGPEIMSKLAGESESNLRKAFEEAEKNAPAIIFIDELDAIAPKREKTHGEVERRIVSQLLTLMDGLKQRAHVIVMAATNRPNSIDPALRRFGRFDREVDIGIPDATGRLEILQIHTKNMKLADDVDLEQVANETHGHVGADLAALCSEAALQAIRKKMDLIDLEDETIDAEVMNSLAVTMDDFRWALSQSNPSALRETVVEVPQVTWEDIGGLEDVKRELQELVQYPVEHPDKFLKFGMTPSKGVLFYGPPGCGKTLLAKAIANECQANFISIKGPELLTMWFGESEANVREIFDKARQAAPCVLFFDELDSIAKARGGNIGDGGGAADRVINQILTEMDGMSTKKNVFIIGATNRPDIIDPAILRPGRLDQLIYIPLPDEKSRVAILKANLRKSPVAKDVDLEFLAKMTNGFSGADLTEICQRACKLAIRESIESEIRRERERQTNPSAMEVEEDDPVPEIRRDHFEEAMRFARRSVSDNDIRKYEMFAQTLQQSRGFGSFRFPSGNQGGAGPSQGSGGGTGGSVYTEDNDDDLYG
The test system of another experiment is A549. The experiment can be described thus: Cytotoxicity against human A549 cells assessed as reduction in cell viability incubated for 72 hrs by CCK8 assay. Particulars: A549, 72 h; call rule not given here. In kind it is functional, cell-based.
The mark [2] stands for this setting: Homo sapiens, RPMI-8226, 72 h, read-out: IC50.

The term IC50 denotes the point on the concentration scale where inhibition reaches its midpoint. With `CC#CC(=O)Nc1cccc2c1cc(C)n2-c1ncc(OC)c(NCc2cccc(B(O)O)c2)n1`, the IC50 was 2400 nM in the experiment with RPMI-8226 (setting [2]), 32 nM in experiment [1] and 6100 nM with A549.

Take `COc1cnc(-n2c(C)cc3c(NC(=O)c4ccco4)cccc32)nc1NCc1cccc(B(O)O)c1`: the results for the IC50 (in the experiment with RPMI-8226 (setting [2]); in experiment [1]; in the experiment with A549) were 1900 nM, 97.4 nM and 3770 nM, respectively.

In the case of `Cc1cc2c(NC(=O)c3ccco3)cccc2n1-c1nc(NCc2cccc(B(O)O)c2)c2ccccc2n1`, the results for the 50% inhibitory concentration (IC50) (in the experiment with RPMI-8226 (setting [2]); in experiment [1]; in the experiment on A549) were 3200 nM, 162 nM and 5800 nM, respectively.

Consider `C#CC(=O)Nc1cccc2c1cc(C)n2-c1nc2c(c(NCc3cccc(B(O)O)c3)n1)CCC2`, for which the figures for the IC50 (with RPMI-8226 (setting [2]); in experiment [1]; with A549) were 1270 nM, 91.4 nM and 2100 nM, respectively.

For the compound `Cc1cc2c(NC(=O)CCl)cccc2n1-c1nc2c(c(NCc3cccc(B(O)O)c3)n1)CCC2`, in experiment [1], it took 258 nM to reach half-maximal inhibition (IC50).

On to `CC#CC(=O)Nc1cccc2c1cc(C)n2-c1nc2c(c(NCc3cccc(B(O)O)c3)n1)CCC2`, for which the results for the IC50 (in the experiment with RPMI-8226 (setting [2]); in experiment [1]; in the experiment with A549) were 1730 nM, 58.6 nM and 3150 nM, respectively.

For `Cc1cc2c(NC(=O)CCCl)cccc2n1-c1nc2c(c(NCc3cccc(B(O)O)c3)n1)CCC2`, half-maximal inhibition in experiment [1] (IC50) required 436 nM.

Consider `Cc1cc2c(NS(C)(=O)=O)cccc2n1-c1nc2c(c(NCc3cccc(B(O)O)c3)n1)COCC2`, for which the results for the IC50 (in the experiment with RPMI-8226 (setting [2]); in experiment [1]; in the experiment on A549) were 5100 nM, 117 nM and above 10000 nM, respectively.

In the case of `Cc1cc2c(NC(=O)c3ccco3)cccc2n1-c1nc2c(c(NCc3cccc(B(O)O)c3)n1)CCC2`, the IC50 stood at 2300 nM in the experiment on RPMI-8226 (setting [2]), 57.3 nM in experiment [1] and 3550 nM in the experiment with A549.

Regarding `C=CC(=O)Nc1cccc2c1cc(C)n2-c1nc2c(c(NCc3cccc(B(O)O)c3)n1)CCC2`, the results for the IC50 (in the experiment on RPMI-8226 (setting [2]); in experiment [1]; in the experiment with A549) were 2940 nM, 192 nM and 4750 nM, respectively.

For the compound `Cc1cc2c(NC(=O)c3ccco3)cccc2n1-c1nc2c(c(NCc3cccc(B(O)O)c3)n1)CCCC2`, the IC50 in the experiment with RPMI-8226 (setting [2]) was 2330 nM; in experiment [1], 93.4 nM; with A549, 3120 nM.

Consider `Cc1cc2c(NC(=O)CC#N)cccc2n1-c1nc2c(c(NCc3cccc(B(O)O)c3)n1)CCC2`, for which the 50% inhibitory concentration (IC50) in experiment [1] turned out to be 692 nM.

With `Cc1cc2c(NS(C)(=O)=O)cccc2n1-c1nc2c(c(NCc3cccc(B(O)O)c3)n1)CCCC2`, the concentration for half-maximal inhibition (IC50) in the experiment with RPMI-8226 (setting [2]) amounted to 1550 nM; in experiment [1], 45.6 nM; in the experiment with A549, 2420 nM.

Consider `CC#CC(=O)Nc1cccc2c1cc(C)n2-c1nc(NCc2cccc(B(O)O)c2)c2ccccc2n1`, for which the concentration for half-maximal inhibition (IC50) is 2200 nM in the experiment on RPMI-8226 (setting [2]), 114 nM in experiment [1] and 5600 nM with A549.

Take `Cc1cc2c(NC(=O)c3cscn3)cccc2n1-c1nc2c(c(NCc3cccc(B(O)O)c3)n1)CCC2`: the IC50 in experiment [1] came out at 468 nM.

Consider `Cc1cc2c(NC(=O)c3ccco3)cccc2n1-c1nc2c(c(NCc3cccc(B(O)O)c3)n1)COCC2`, for which the values for the half-maximal inhibitory concentration (IC50) (with RPMI-8226 (setting [2]); in experiment [1]; with A549) were 2700 nM, 91 nM and 4380 nM, respectively.

Regarding `Cc1cc2c(NS(C)(=O)=O)cccc2n1-c1nc2c(c(NCc3cccc(B(O)O)c3)n1)CCC2`, the values for the IC50 (in the experiment on RPMI-8226 (setting [2]); in experiment [1]; in the experiment on A549) were 860 nM, 54.7 nM and 2800 nM, respectively.

`CC#CC(=O)Nc1cccc2c1cc(C)n2-c1nc2c(c(NCc3cccc(B(O)O)c3)n1)CCCC2`: the 50% inhibitory concentration (IC50) in the experiment with RPMI-8226 (setting [2]) was 1500 nM; in experiment [1], 89.8 nM; in the experiment on A549, 2150 nM.

For `Cc1cc2c(NS(C)(=O)=O)cccc2n1-c1nc(NCc2cccc(B(O)O)c2)c2ccccc2n1`, the results for the concentration for half-maximal inhibition (IC50) (in the experiment with RPMI-8226 (setting [2]); in experiment [1]; in the experiment on A549) were 3600 nM, 88.9 nM and 5600 nM, respectively.

Regarding `CC#CC(=O)Nc1cccc2c1cc(C)n2-c1nc2c(c(NCc3cccc(B(O)O)c3)n1)COCC2`, the figures for the IC50 (with RPMI-8226 (setting [2]); in experiment [1]; in the experiment on A549) were 2900 nM, 117 nM and 4100 nM, respectively.

As to `Cc1cc2c(NC(=O)c3ccno3)cccc2n1-c1nc2c(c(NCc3cccc(B(O)O)c3)n1)CCC2`, inhibition in experiment [1] was half-maximal at 241 nM (IC50).

Regarding `C/C=C/C(=O)Nc1cccc2c1cc(C)n2-c1nc2c(c(NCc3cccc(B(O)O)c3)n1)CCC2`, the IC50 result in the experiment with RPMI-8226 (rpmi-8226) is “Not Active”; in experiment [1], 166 nM; with A549 it was 4450 nM.
